Values of other authors, collected in patent US20060030591A1 (Wyeth, priority 2004, published 2006).

How the values were obtained:
[1] = system: tamoxifen-resistent MCF-7 breast cancer xenografts; settings: recent preclinical studies, qualitative
[2] = system: tamoxifen-sensitive cells lines; settings: other studies, qualitative
uterus = settings: qualitative

For `Cc1c(-c2ccc(O)cc2)n(Cc2ccc(OCCN3CCCCC3)cc2)c2ccc(O)cc12.Cl` [pipindoxifene, 2-(4-hydroxyphenyl)-3-methyl-1-[4-(2-piperidin-1-yl-ethoxy)-benzyl]-1H-indol-5-ol hydrochloride], which “growth of tamoxifen-resistent MCF-7 breast cancer xenografts” value [1] is on record?
Its value is “inhibited the growth”.

And the “effectiveness in tamoxifen-sensitive cells lines” value [2]?
Its value is “show effectiveness”.

What about the “effect in the uterus” value (uterus; Greenberger, et al., Clin. Cancer Res. (2001)) of the same molecule?
Its value is “antiestrogenic in the uterus”.

And the uterotropic activity (uterus; tissue selective estrogenic effects)?
The uterotropic activity was “little or no uterotropic activity”.
